“Also recorded” adds a separate entry of the source. Read-outs that look alike come from different tables or passages of the source. One block for each compound: values may come before it.
How the values were obtained:
[1] = no reference given; cited from earlier work
[2] = Ruxolitinib pharmacokinetics without and with co-administered voriconazole; format: in vivo, human
[3] = system: CYP3A4; settings: cited from earlier work
[4] = presence vs absence of food; cited from earlier work
[5] = human; cited from earlier work
[6] = system: CYP2C9; settings: cited from earlier work
[7] = 10 mg once daily for 10 days; cited from earlier work
[8] = system: patients undergoing HSCT; settings: initial dose 5 mg twice daily; cited from earlier work
[9] = coadministered with fluconazole vs ruxolitinib alone; cited from earlier work
[10] = system: healthy people; settings: cited from earlier work
[11] = system: patients with hematological malignancies; assay: Adverse effects during the DDI study; format: in vivo, human
[12] = system: patients receiving ruxolitinib; settings: patients receiving ruxolitinib vs control regimen; cited from earlier work
[13] = system: SR-aGVHD patients; settings: 10 mg ruxolitinib twice daily, cited from earlier work
[14] = system: breast cancer resistance protein (BCRP); settings: cited from earlier work
[15] = Voriconazole steady-state check from two adjacent trough concentrations; format: in vivo, human; settings: first four patients, day 4, 200 mg per 12 h without loading dose
[16] = after pre-treatment with voriconazole vs ruxolitinib alone
[17] = ruxolitinib 5 mg co-administered with voriconazole
[18] = with voriconazole vs ruxolitinib alone

SMILES: CC[C@@H]([C@H](C)O)n1ncn(-c2ccc(N3CCN(c4ccc(OC[C@@H]5CO[C@@](Cn6cncn6)(c6ccc(F)cc6F)C5)cc4)CC3)cc2)c1=O [posaconazole]
bioavailability [1]: 83%

SMILES: N#CC[C@H](C1CCCC1)n1cc(-c2ncnc3[nH]ccc23)cn1 [ruxolitinib]
AUCinf increased by [2, 16]: 118.3% | AUClast increased by [2, 16]: 110.1% | Cmax increased by [2, 16]: 50.4% | T1/2 increased by [2, 16]: 81.3% | change in Tmax [2, 16]: no significant change | CL/F % of ruxolitinib alone [2, 17]: 43.6% | Cmax % of ruxolitinib alone [2, 17]: 150.4% | CL/F ([2]; ruxolitinib 5 mg single oral dose alone, 12 patients, mean ± SD): 22.5 ± 6.4 L/h | AUClast increased to [2, 18]: approximately 2.1 fold | T1/2 prolonged to [2, 18]: 1.81 fold | AUCinf increased to (range over patients) ([2]; with voriconazole vs ruxolitinib alone, range): 1.44–3.35 fold | share of metabolism by CYP3A4 [3]: 76% | AUCinf decreased by food [4]: 6% | Cmax decreased by food [4]: 24.3% | unchanged parent molecules in urine and feces [5]: less than 1% | share of metabolism by CYP2C9 [6]: 19% | accumulation on repeated dosing [7]: no cumulative effect | patients developing severe cytopenia [8]: 60% | patients responding [8]: 75% | AUCinf increased by [9]: 232% | AUClast increased by [9]: 234% | Cmax increased by [9]: 47% | maximum tolerated dose (MTD) ([10]; once daily): 100 mg | maximum tolerated dose (MTD) ([10]; twice daily): 25 mg | adverse effects ([11]; two single doses of 5 mg ruxolitinib): No observed adverse effects; also recorded: No adverse effect | fungal infection [12]: 11.5% | overall response on day 28 ([13]; SR-aGVHD): 62% | anemia, severe (grade ≥ 3) adverse event [13]: 22% | neutropenia, severe (grade ≥ 3) adverse event [13]: 13% | thrombocytopenia, severe (grade ≥ 3) adverse event [13]: 27%

difference between two trough concentrations (C12-C0)/C12×100% [15]: less than 15%
SMILES: C[C@@H](c1ncncc1F)[C@](O)(Cn1cncn1)c1ccc(F)cc1F [voriconazole]
inhibition of BCRP [14]: does not inhibit | bioavailability [1]: 96% | adverse effects ([11]; voriconazole 200 mg per 12 h without loading dose, first four patients): no adverse effects were observed

Source: PMC8964335 (Drug Design, Development and Therapy, 2022)
